Test results: US9034898B2, “FGF receptor (FGFR) agonist dimeric compounds, process for the preparation thereof and therapeutic use thereof” (Sanofi, priority 2011, dated 2015)
pEC50: −log10 of the molar value.

Key:
[1] = tested on: human venous endothelial cells (HUVECs); assay: In vitro angiogenesis model (pseudotubule length of HUVECs on matrigel/collagen); assay type: cell-based; parameters: % activation with respect to FGF2 (in vitro): concentration or dose not given beside the values; conditions: for activity on the in vitro angiogenesis model: at a concentration of 1 nM, HUVECs, 24 hours; for pEC50 / % activation with respect to FGF2 (in vitro): in vitro; for % activation with respect to FGF2 (in vitro): relative to FGF2
Experimental: In Vitro Angiogenesis Model
The products are tested for their ability to cause rearrangement of human venous endothelial cells (HUVECs) on matrigel (Becton dickinson 356230) diluted in collagen (rat tail collagen, type I: Becton dickinson 354236). After 24 hours, the cells are observed under a microscope with a X4 objective and the length of the pseudotubules is measured by means of an image analyser (BIOCOM-logiciel Visiolab 2000).
By way of example, compounds 1, 2, 3, 5 and 9 are active at a concentration of 1 nM on the in vitro angiogenesis model.

BalbC mice = assay: Sponge angiogenesis model (haemoglobin content of implanted cellulose sponge); assay type: in vivo; conditions: concentration of 300 μM injected into the sponge, eighth day after implantation
From the text: Sponge Angiogenesis Model
The sponge angiogenesis model is an adaptation of the technique of Andrade et al [Andrade S P, Machado R., Teixeir A S, Belo A V, Tarso A M, Beraldo W T—Sponge-induced angiogenesis in mice and the pharmacological reactivity of the neovasculature quantitated by fluorimetric method, Microvascular Research, 1997, 54: 253-61.]
The mice used are BalbC females from Charles River Laboratory, 7 to 10 weeks old. The animals are anaesthetized by intraperitoneal injection of a xylazine/ketamine mixture ([…] in 0.9% NaCl). The animal's back is shaved and disinfected with hexomedine. A subcutaneous 5 ml pocket of air is made on the animal's back with sterile air. An incision is then made (approximately 1 cm) on the top of the animal's back in order to implant the sponge into the pocket. The biocompatible cellulose sponge (Cellspon, Interchim, 10 mm in diameter) was sterilized beforehand (autoclave 20 min at 120° C.) and is impregnated with 50 μl of sterile solution containing the test product. Suturing is performed by inserting two 9-mm stainless steel autoclip staples (Subra). The wound is again disinfected with hexomedine. […]
To assay the haemoglobin, 50 μl of each sample are deposited in a 96-well plate, in duplicate. […] The OD values are read on a spectrophotometer at 405 nm, using the Biolise software (Tecan, France). […]

Row | SMILES | activity on the in vitro angiogenesis model [1] | pEC50 [1] | % activation with respect to FGF2 (in vitro) [1] [%] | pEC50 ([1]; Homo sapiens, HUVEC) | activity on the in vivo angiogenesis model (BalbC mice)
1 | O=C(O)c1cc(-c2cc(C(=O)NCCCOCCOCCCNC(=O)c3cc(-c4ccc(F)c(C(=O)O)c4)nc4[nH]nc(-c5ccccc5)c34)c3c(-c4ccccc4)n[nH]c3n2)ccc1F [Compound 1, 3,3′-{ethane-1,2-diylbis[oxypropane-3,1-diylcarbamoyl(3-phenyl-1H-pyrazolo[3,4-b]pyridine-4,6-diyl)]}bis(6-fluorobenzoic acid)] | active | > 9.00 | 84 | – | –
2 | O=C(O)c1cc(-c2cc(C(=O)NCCCOCCOCCOCCCNC(=O)c3cc(-c4ccc(F)c(C(=O)O)c4)nc4[nH]nc(-c5ccccc5)c34)c3c(-c4ccccc4)n[nH]c3n2)ccc1F [Compound 2, 5-[4-({15-[6-(3-carboxy-4-fluorophenyl)-3-phenyl-1H-pyrazolo[3,4-b]pyridin-4-yl]-15-oxo-4,7,10-trioxa-14-azapentadec-1-yl}carbamoyl)-3-phenyl-1H-pyrazolo[3,4-b]pyridin-6-yl]-2-fluorobenzoic acid] | active | – | 84 | > 9.00 | active
3 | O=C(O)c1cc(-c2cc(C(=O)NCCOCCOCCOCCOCCNC(=O)c3cc(-c4ccc(F)c(C(=O)O)c4)nc4[nH]nc(-c5ccccc5)c34)c3c(-c4ccccc4)n[nH]c3n2)ccc1F [Compound 3, 5-[4-({16-[6-(3-carboxy-4-fluorophenyl)-3-phenyl-1H-pyrazolo[3,4-b]pyridin-4-yl]-16-oxo-3,6,9,12-tetraoxa-15-azahexadec-1-yl}carbamoyl)-3-phenyl-1H-pyrazolo[3,4-b]pyridin-6-yl]-2-fluorobenzoic acid] | active | – | 75 | > 9.00 | –
4 | O=C(O)c1cc(-c2cc(C(=O)NCCCOCCOCCOCCOCCOCCCNC(=O)c3cc(-c4ccc(F)c(C(=O)O)c4)nc4[nH]nc(-c5ccccc5)c34)c3c(-c4ccccc4)n[nH]c3n2)ccc1F [Compound 5, 5-[4-({21-[6-(3-carboxy-4-fluorophenyl)-3-phenyl-1H-pyrazolo[3,4-b]pyridin-4-yl]-21-oxo-4,7,10,13,16-pentaoxa-20-azahenicos-1-yl}carbamoyl)-3-phenyl-1H-pyrazolo[3,4-b]pyridin-6-yl]-2-fluorobenzoic acid] | active | – | 124 | > 9.00 | –
5 | NC(=O)c1cc(-c2ccc(F)c(C(=O)O)c2)nc2[nH]nc(-c3cccc(C(=O)NCCCOCCOCCOCCCNC(=O)c4cccc(-c5n[nH]c6nc(-c7ccc(F)c(C(=O)O)c7)cc(C(N)=O)c56)c4)c3)c12 [Compound 6, 5-(4-carbamoyl-3-{3-[(15-{3-[4-carbamoyl-6-(3-carboxy-4-fluorophenyl)-1H-pyrazolo[3,4-b]pyridin-3-yl]phenyl}-15-oxo-4,7,10-trioxa-14-azapentadec-1-yl)carbamoyl]phenyl}-1H-pyrazolo[3,4-b]pyridin-6-yl)-2-fluorobenzoic acid] | – | – | 50 | 8.52 | –
6 | NC(=O)c1cc(-c2ccc(F)c(C(=O)O)c2)nc2[nH]nc(-c3ccc(C(=O)NCCCOCCOCCOCCCNC(=O)c4ccc(-c5n[nH]c6nc(-c7ccc(F)c(C(=O)O)c7)cc(C(N)=O)c56)cc4)cc3)c12 [Compound 8, 5-(4-carbamoyl-3-{4-[(15-{4-[4-carbamoyl-6-(3-carboxy-4-fluorophenyl)-1H-pyrazolo[3,4-b]pyridin-3-yl]phenyl}-15-oxo-4,7,10-trioxa-14-azapentadec-1-yl)carbamoyl]phenyl}-1H-pyrazolo[3,4-b]pyridin-6-yl)-2-fluorobenzoic acid] | – | – | 20 | > 7.00 | –
7 | NC(=O)c1cc(-c2ccc(F)c(C(=O)O)c2)nc2[nH]nc(-c3ccc(C(=O)NCCOCCOCCNC(=O)c4ccc(-c5n[nH]c6nc(-c7ccc(F)c(C(=O)O)c7)cc(C(N)=O)c56)cc4)cc3)c12 [Compound 9, 3,3′-{ethane-1,2-diylbis[oxyethane-2,1-diylcarbamoylbenzene-4,1-diyl(4-carbamoyl-1H-pyrazolo[3,4-b]pyridine-3,6-diyl)]}bis(6-fluorobenzoic acid)] | active | > 9.00 | 60 | – | –
